For orientation: IC50 means the midpoint of a concentration-inhibition curve. A high value points to a need for much substance.

For the experiment, the target named is Nonstructural protein 3 (Zika virus, UniProt A0A024AXB9). Description: Functional biochemical assay to identify treatments for viral infectious disease that targets Zika NS2B-NS3 protease. Utilizing a direct enzyme activity measurement method, reading the fluorescence intensity is used to characterize the relative potency of inhibitors as IC50. Also on record: species or system PRVABC59.

The structures appear in SMILES notation.

Nonstructural protein 3, sequence (A0A024AXB9 whole entry): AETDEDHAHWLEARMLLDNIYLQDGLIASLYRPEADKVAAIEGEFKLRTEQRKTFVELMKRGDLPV

The compound `c1ccc2c(CNCc3ccc(-c4cscn4)cc3)c[nH]c2c1` showed an IC50 of 81 µM. With `Cc1nocc1S(=O)(=O)N[C@H](C(=O)Nc1cccc(CN)c1)c1ccc(OCc2ccccc2)cc1`, the IC50 is > 99.5 µM.

`O=C(c1cccnc1)N1CCN(Cc2c[nH]c3ccccc23)CC1`: the IC50 is > 99.5 µM. Take `NCc1cccc(NC(=O)c2cc(Cl)cc(CN)c2)c1`: the IC50 was < 2.49 µM. Turning to `NCc1cccc(S(=O)(=O)Nc2cc(Cl)cc(NC(=O)OCc3ccccc3)c2)c1`, the IC50 is > 99.5 µM. Then `NCc1ccccc1Oc1ccc(S(=O)(=O)Nc2ccc(Cl)cc2C(=O)O)cc1`, with > 99.5 µM. `O=S(=O)(c1cccnc1)N1CCN(Cc2c[nH]c3ccccc23)CC1`: the IC50 is > 99.5 µM.

In the case of `Fc1cc(F)c2[nH]cc(CN3CCC(c4cscn4)CC3)c2c1F`, the IC50 was > 99.5 µM. Then `Cn1nc2c(c1NC(=O)[C@@H](NC(=O)OCc1ccccc1)c1ccc(OCc3ccccc3)cc1)CNC2`, with > 99.5 µM; and `Cc1c(NC(=O)OCc2ccccc2)cc(C(F)(F)F)cc1C(=O)Nc1cccc(CN)c1`, with 60.4 µM. Then `CC(C)(C)OC(=O)NCc1cccc(NC(=O)c2cc(N)cc(Cl)c2)c1`, with > 99.5 µM; and `Cc1c[nH]nc1CN1CCC(c2cscn2)CC1`, with > 99.5 µM; and `O=C(Nc1cc(Cl)cc(C(=O)Nc2ncc([C@H]3CCCN3)s2)c1)OCc1ccccc1`, with > 99.5 µM. Then `CN1CCn2nc(NC(=O)c3cc(Cl)cc(NC(=O)OCc4ccccc4)c3)cc2C1`, with > 99.5 µM; and `CC(C)N1CCc2nc(NC(=O)c3cc(Cl)cc(NC(=O)OCc4ccccc4)c3)sc2C1`, with > 99.5 µM. Regarding `c1ccc(-c2c[nH]nc2CN2CCC(c3cscn3)CC2)cc1`, the IC50 is > 99.5 µM. For `CN(C)Cc1cc(NC(=O)[C@@H](NC(=O)OCc2ccccc2)c2ccc(OCc3ccccc3)cc2)ccc1Cl`, the IC50 is > 99.5 µM. To `NCc1cccc(NC(=O)[C@@H](NC(=O)OCc2ccccc2)c2ccc(-c3cccc4nonc34)cc2)c1` belongs 6.42 µM. To `O=C1CN(Cc2c[nH]c3ccccc23)CCN1c1cccnc1` belongs > 99.5 µM; to `COc1cc2c(CN3CCC(c4cscn4)CC3)c[nH]c2cc1Cl`, 49.6 µM. In the case of `c1cncc(N2CCCN(Cc3c[nH]c4ccccc34)CC2)c1`, the IC50 was > 99.5 µM. To `N#Cc1ccc2[nH]cc(CN3CCC(c4cscn4)CC3)c2c1` belongs 17.8 µM. `COc1cc(NC(=O)OCc2ccccc2)cc(C(=O)Nc2cccc(CN)c2)c1` displayed an IC50 of 78.8 µM. To `NCc1cccc(NC(=O)c2ccc(OCC(F)(F)F)c(NC(=O)OCc3ccccc3)c2)c1` belongs 48.7 µM; to `O=C(N[C@@H](C(=O)Nc1nc2c(s1)CNC2)c1ccc(OCc2ccccc2)cc1)OCc1ccccc1`, > 99.5 µM. `N#Cc1cccc2c(CN3CCC(c4cscn4)CC3)c[nH]c12`: the IC50 is > 99.5 µM.

Regarding `FC1(c2cccnc2)CN(Cc2c[nH]c3ccccc23)C1`, the IC50 was > 99.5 µM.

Take `NCc1ccc(Oc2ccc(S(=O)(=O)Nc3ccc(Cl)cc3C(=O)NCC(F)(F)F)cc2)cc1`: the IC50 was > 99.5 µM.

For the compound `Cc1ccc(CN(C)C)cc1NC(=O)[C@@H](NC(=O)OCc1ccccc1)c1ccc(OCc2ccccc2)cc1`, the IC50 was > 99.5 µM. Then `CN1CCn2nc(NC(=O)[C@@H](NC(=O)OCc3ccccc3)c3ccc(OCc4ccccc4)cc3)cc2C1`, with > 99.5 µM; and `c1cncc([C@@H]2CN(Cc3c[nH]c4ccccc34)CCO2)c1`, with > 99.5 µM; and `Cc1c(C(F)(F)F)n[nH]c1CN1CCC(c2cscn2)CC1`, with > 99.5 µM. As to `O=C(Nc1cccnc1)C1CCN(Cc2c[nH]c3ccccc23)CC1`, the IC50 was 64.3 µM. To `CN(Cc1cccnc1)Cc1c[nH]c2ccccc12` belongs > 99.5 µM; to `Cc1[nH]c2ccccc2c1CN1CCC(c2nc3ccccc3s2)CC1`, 2.89 µM; to `COCc1ccccc1Nc1ccc(S(=O)(=O)Nc2ccc(Cl)cc2C(=O)O)cn1`, 98.8 µM. `NCc1cccc(NC(=O)[C@H](NS(=O)(=O)Cc2ccccc2)c2ccc(OCc3ccccc3)cc2)c1`: 64.5 µM corresponded to half-maximal inhibition (IC50).

The values above are taken from ChEMBL document CHEMBL5604062, “ASAP - ZIKV NS2B-NS3 protease fluorescence dose response” (2024).
